What was measured:
GDF8 = test: AlphaScreen SureFire SMAD3 (p-Ser423/425) assay, GDF8-stimulated (GDF pSMAD (MPC11)); type: cell-based; conditions: p-SMAD-3 (Ser423/425)
Excerpt: (§1) Example 2: AlphaScreen® SureFire® SMAD3 (p-Ser423/425) Assay
(§2) The p-SMAD-3 (Ser423/425) SureFire® assay has been designed to measure the phosphorylation of endogenous cellular p-SMAD-3 (Ser423/425) in cell lysates and is a system for the screening of both modulators of receptor activation (e.g. agonists and antagonists) as well as agents acting intracellularly, such as small molecule inhibitors of upstream events. The assay will measure p-SMAD-3 (Ser423/425) activation by either cloned or endogenous receptors, and can be applied to primary cells.
(§3) P-SMAD-3 (Ser423/425) SureFire® Assay Protocols
(§4) 96-well Assay Protocol for 293FT and RMS13 adherent cells can be carried out manually or in high throughput with liquid handling robots.
(§5) The cells (80 μL of cells for 96 well plates) were plated in collagen coated tissue culture plates in RPMI or FreeStyle medium (Invitrogen) and incubated overnight. For manual analysis, 6 plates for GDF8, 6 plates for TGFβ, and optionally 6 plates for Alk5ca(ALK5 constitutively active) were used.
(§6) The compound dilution plates were prepared as follows: 12 μL of DMSO was transferred into first column of 96-well plate, and 16 μL of DMSO was transferred into columns 2-12 of the 96-well plate. 12 μL of compound solution was transferred into first column of the DMSO-containing 96-well plate. Three-fold dilution was performed up to column 10 of the DMSO-containing 96-well plate.
(§7) The plate containing cells were treated with compounds for about 10 minutes, and then ligand was added. GDF8 or TGFb was added to plates to stimulate. 293FL cells were stimulated for 90 minutes at 37° C.; and RMS13 cells were stimulated for 60 minutes at 37° C. The medium was then removed from the cells, and 1× Lysis Buffer (about 25 μL) was added and the plate was gently agitated on plate shaker for 5-10 minutes.
(§8) The lysate (5 μL) was then placed into 384-well shallow plates avoiding the generation of bubbles. To this, the Reaction Buffer+Activation Buffer+AlphaScreen® Acceptor beads mixture (5 μL) was added. The plate was sealed with adhesive cover and shielded from light (e.g., with metal foil), and agitated gently on plate shaker for 2 hours at room temperature.
(§9) Dilution buffer+AlphaScreen® Donor beads (2 μL) was then added, and the plate was intubated on the plate shaker for an additional 1½ hours. After completion, the plate was read on Synergy-4 or Enspire plate reader, using AlphaScreen® pSMAD3® settings.
(§10) Representative results for inhibition of GDF8 (data=GDF pSMAD (MPC11) (μM)) and TGF-β (data=TGF-β pSMAD (MPC-11) (μM)) signaling are shown in Table 1: […]

TGF-β = test: AlphaScreen SureFire SMAD3 (p-Ser423/425) assay, TGF-β-stimulated (TGF-β pSMAD (MPC-11)); type: cell-based; conditions: p-SMAD-3 (Ser423/425)
Excerpt: as §1, §2, §3, §4, §5, §6, §7, §8, §9, §10

[1] = Mus musculus, MPC-11, inhibition of GDF8 signaling
[2] = Mus musculus, MPC-11, inhibition of TGF-β signaling

Compound: Fc1ccc(-c2ncc(F)c(Nc3ccc4[nH]ncc4c3)n2)cc1F [Compound 35, N-(2-(3,4-Difluorophenyl)-5-fluoropyrimidin-4-yl)-1H-indazol-5-amine]
- IC50 (GDF8; [1]): 258 nM
- IC50 (TGF-β; [2]): 2000 nM

Compound: Fc1cccc(-c2ncc(F)c(Nc3ccc4[nH]ncc4c3)n2)c1 [Compound 36, N-(5-Fluoro-2-(3-fluorophenyl)pyrimidin-4-yl)-1H-indazol-5-amine]
- IC50 (GDF8; [1]): 555 nM
- IC50 (TGF-β; [2]): 3060 nM

Compound: Fc1cnc(-c2ccccc2)nc1Nc1ccc2[nH]ncc2c1 [Compound 37, N-(5-Fluoro-2-phenylpyrimidin-4-yl)-1H-indazol-5-amine]
- IC50 (GDF8; [1]): 459 nM
- IC50 (TGF-β; [2]): 3260 nM

Compound: Cc1cnc(-c2ccccc2F)nc1Nc1ccc2[nH]ncc2c1 [Compound 38, N-(2-(2-Fluorophenyl)-5-methylpyrimidin-4-yl)-1H-indazol-5-amine]
- IC50 (GDF8; [1]): 125 nM
- IC50 (TGF-β; [2]): 339 nM

Compound: Cc1ccccc1-c1ncc(C)c(Nc2ccc3[nH]ncc3c2)n1 [Compound 39, N-(2-(2-Methylphenyl)-5-methylpyrimidin-4-yl)-1H-indazol-5-amine]
- IC50 (GDF8; [1]): 204 nM
- IC50 (TGF-β; [2]): 436 nM

Compound: Cc1cnc(-c2ccc(F)c(F)c2)nc1Nc1ccc2[nH]ncc2c1 [Compound 40, N-(2-(3,4-Difluorophenyl)-5-methylpyrimidin-4-yl)-1H-indazol-5-amine]
- IC50 (GDF8; [1]): 58.6 nM
- IC50 (TGF-β; [2]): 174 nM

Compound: Cc1ccc(C)c(-c2ncc(C)c(Nc3ccc4[nH]ncc4c3)n2)c1 [Compound 41, N-(2-(2,5-Dimethylphenyl)-5-methylpyrimidin-4-yl)-1H-indazol-5-amine]
- IC50 (GDF8; [1]): 105 nM
- IC50 (TGF-β; [2]): 168 nM

Compound: Cc1cc(F)ccc1-c1nccc(Nc2ccc3[nH]ncc3c2)n1 [Compound 42, N-(2-(4-Fluoro-2-methylphenyl)pyrimidin-4-yl)-1H-indazol-5-amine]
- IC50 (GDF8; [1]): 7.6 nM
- IC50 (TGF-β; [2]): 53.3 nM

Compound: Cc1cc(-c2nccc(Nc3ccc4[nH]ncc4c3)n2)ccc1F [Compound 43, N-(2-(4-Fluoro-3-methylphenyl)pyrimidin-4-yl)-1H-indazol-5-amine]
- IC50 (GDF8; [1]): 41 nM
- IC50 (TGF-β; [2]): 185 nM

Compound: Nc1ccccc1-c1nccc(Nc2ccc3[nH]ncc3c2)n1 [Compound 44, N-(2-(2-Aminophenyl)pyrimidin-4-yl)-1H-indazol-5-amine]
- IC50 (GDF8; [1]): 209 nM
- IC50 (TGF-β; [2]): 1840 nM

Compound: FC(F)(F)c1cccc(-c2nccc(Nc3ccc4[nH]ncc4c3)n2)c1 [Compound 45, N-(2-(3-Trifluoromethylphenyl)pyrimidin-4-yl)-1H-indazol-5-amine]
- IC50 (GDF8; [1]): 652 nM
- IC50 (TGF-β; [2]): 4370 nM

Compound: COc1ccc(-c2nccc(Nc3ccc4[nH]ncc4c3)n2)c(C)c1 [Compound 46, N-(2-(4-Methoxy-2-methylphenyl)pyrimidin-4-yl)-1H-indazol-5-amine]
- IC50 (GDF8; [1]): 11 nM
- IC50 (TGF-β; [2]): 65.9 nM

Compound: COc1cc2nccc(Nc3ccnc(-c4ccc(F)cc4C)n3)c2cc1OC [Compound 47, N-(2-(4-Fluoro-2-methylphenyl)pyrimidin-4-yl)-6,7-dimethoxyquinolin-4-amine]
- IC50 (GDF8; [1]): 34.4 nM
- IC50 (TGF-β; [2]): 44.4 nM

Compound: Cc1ccc(F)c(-c2nccc(Nc3ccc4[nH]ncc4c3)n2)c1 [Compound 48, N-(2-(2-Fluoro-5-methylphenyl)pyrimidin-4-yl)-1H-indazol-5-amine]
- IC50 (GDF8; [1]): 192 nM
- IC50 (TGF-β; [2]): 595 nM

Compound: Cc1cc(-c2ncc(C)c(Nc3cnc4[nH]ncc4c3)n2)ccc1F [Compound 49, N-(2-(4-Fluoro-3-methylphenyl)-5-methylpyrimidin-4-yl)-1H-pyrazolo[3,4-b]pyridin-5-amine]
- IC50 (GDF8; [1]): 545 nM
- IC50 (TGF-β; [2]): 349 nM

Compound: Fc1ccc(-c2nc(Nc3cnc4[nH]ncc4c3)c3cc[nH]c3n2)cc1 [Compound 50, N-(2-(4-Fluorophenyl)-7H-pyrrolo[2,3-d]pyrimidin-4-yl)-1H-pyrazolo[3,4-b]pyridin-5-amine]
- IC50 (GDF8; [1]): 1050 nM
- IC50 (TGF-β; [2]): 3490 nM

Compound: Cc1cc(-c2ncc(C)c(Nc3cc4cn[nH]c4cc3C)n2)ccc1F [Compound 51, N-(2-(4-Fluoro-3-methylphenyl)-5-methylpyrimidin-4-yl)-6-methyl-1H-indazol-5-amine]
- IC50 (GDF8; inhibition of GDF8 signaling): 777 nM
- IC50 (TGF-β; inhibition of TGF-β signaling): 829 nM

Compound: Cc1cccc(-c2ncc(C)c(Nc3cc4cn[nH]c4cc3C)n2)c1 [Compound 52, N-(2-(3-Methylphenyl)-5-methylpyrimidin-4-yl)-6-methyl-1H-indazol-5-amine]
- IC50 (GDF8; [1]): 234 nM
- IC50 (TGF-β; [2]): 322 nM

Compound: Cc1cc2[nH]ncc2cc1Nc1nc(-c2ccc(F)cc2)ncc1C [Compound 53, N-(2-(4-Fluorophenyl)-5-methylpyrimidin-4-yl)-6-methyl-1H-indazol-5-amine]
- IC50 (GDF8; [1]): 540 nM
- IC50 (TGF-β; [2]): 543 nM

Compound: Cc1cc2[nH]ncc2cc1Nc1nc(-c2ccc(F)c(F)c2)ncc1C [Compound 54, N-(2-(3,4-Difluorophenyl)-5-methylpyrimidin-4-yl)-6-methyl-1H-indazol-5-amine]
- IC50 (GDF8; [1]): 492 nM
- IC50 (TGF-β; [2]): 662 nM

Compound: Cc1ccc(C)c(-c2ncc(C)c(Nc3cc4cn[nH]c4cc3C)n2)c1 [Compound 55, N-(2-(2,5-Dimethylphenyl)-5-methylpyrimidin-4-yl)-6-methyl-1H-indazol-5-amine]
- IC50 (GDF8; [1]): 260 nM
- IC50 (TGF-β; [2]): 629 nM

Compound: Cc1cc(-c2ncc(C)c(Nc3cc4cn[nH]c4cc3C)n2)ccc1F [Compound 56, N-(2-(4-Fluoro-3-methylphenyl)-5-methylpyrimidin-4-yl)-6-methyl-1H-indazol-5-amine]
- IC50 (GDF8; inhibition of GDF8 signaling): 184 nM
- IC50 (TGF-β; inhibition of TGF-β signaling): 281 nM

Compound: Cc1cnc(-c2cccc(F)c2)nc1Nc1cc2cn[nH]c2cc1F [Compound 57, 6-Fluoro-N-(2-(3-fluorophenyl)-5-methylpyrimidin-4-yl)-1H-indazol-5-amine]
- IC50 (GDF8; [1]): 852 nM
- IC50 (TGF-β; [2]): 1820 nM

Compound: Cc1cccc(-c2ncc(C)c(Nc3cc4cn[nH]c4cc3F)n2)c1 [Compound 58, 6-Fluoro-N-(2-(3-methylphenyl)-5-methylpyrimidin-4-yl)-1H-indazol-5-amine]
- IC50 (GDF8; [1]): 394 nM
- IC50 (TGF-β; [2]): 808 nM

Compound: Cc1ccc(C)c(-c2ncc(C)c(Nc3cc4cn[nH]c4cc3F)n2)c1 [Compound 59, 6-Fluoro-N-(2-(2,5-dimethylphenyl)-5-methylpyrimidin-4-yl)-1H-indazol-5-amine]
- IC50 (GDF8; [1]): 332 nM
- IC50 (TGF-β; [2]): 558 nM

Compound: Cc1cnc(-c2ccc(F)c(F)c2)nc1Nc1cc2cn[nH]c2cc1F [Compound 60, 6-Fluoro-N-(2-(3,4-difluorophenyl)-5-methylpyrimidin-4-yl)-1H-indazol-5-amine]
- IC50 (GDF8; [1]): 454 nM
- IC50 (TGF-β; [2]): 1040 nM

Compound: Cc1cc(-c2ncc(C)c(Nc3cc4cn[nH]c4cc3F)n2)ccc1F [Compound 61, 6-Fluoro-N-(2-(4-fluoro-3-methylphenyl)-5-methylpyrimidin-4-yl)-1H-indazol-5-amine]
- IC50 (GDF8; [1]): 241 nM
- IC50 (TGF-β; [2]): 535 nM

Compound: COc1cc2[nH]ncc2cc1Nc1nc(-c2ccccc2F)ncc1C [Compound 62, N-(2-(2-Fluorophenyl)-5-methylpyrimidin-4-yl)-6-methoxy-1H-indazol-5-amine]
- IC50 (GDF8; [1]): 335 nM
- IC50 (TGF-β; [2]): 381 nM

Compound: COc1cc2[nH]ncc2cc1Nc1nc(-c2ccc(F)c(F)c2)ncc1C [Compound 63, N-(2-(3,4-Difluorophenyl)-5-methylpyrimidin-4-yl)-6-methoxy-1H-indazol-5-amine]
- IC50 (GDF8; [1]): 312 nM
- IC50 (TGF-β; [2]): 395 nM
